The record followed here is ChEMBL document CHEMBL1201862, “PubChem BioAssay data set” (2004).

Molecules are shown by their SMILES.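 Step 1: Grow cells in 96-well plates. Step 2: Expose to compound for 48 hours at 5 concentrations. Step 3: Interpolate endpoints linearly; if unreached, use highest concentration. Abbreviation: GI50, concentration required for 50% inhibition of growth.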 Active and inactive are the calls of the source. Rule as the data show it: active = GI50 up to about 1.1 µM and inactive = higher. Where a SMILES comes first, the peptide text is derived from it. The star is where a group is joined. OSu = O=C1CCC(=O)N1O*; OBn = c1ccc(CO*)cc1; Bn = c1ccc(C*)cc1

Holding throughout (assay): DTP human tumour cell line panel, 48 h
Test [1] relates to KM12.
In test [2] the test system is EKVX.
For test [3], the system named is NCI-H460.
The test system of test [4] is CCRF-CEM.
The subject of test [5] is OVCAR-5.
In test [6] the test system is CAKI-1.
Test [7] deals with UO-31.
In test [8] the test system is A549.
For test [9], the system named is 786-0.
Test [10] relates to MOLT-4.
In test [11] the test system is HCC 2998.
Test [12] has as its system ACHN.
Test [13] has as its system NCI-H23.
Test [14] concerns SN12C.
For test [15], the system named is RPMI-8226.
Test [16] relates to HL-60.
In test [17] the test system is MCF7.
Test [18] deals with MDA-N.
Test [19] deals with Hs-578T.

The term GI50 denotes the concentration giving 50% growth inhibition. Take `CN1CCc2c1nc(-c1ccc([N+](=O)[O-])cc1)c1c2N(C)CC1`: the GI50 in [1] is 30.9 µM (inactive); in test [2], > 100 µM (inactive); in test [3], > 100 µM (inactive); in test [4], > 100 µM (inactive); in test [5] it was > 100 µM (inactive); in test [6], 26.4 µM (inactive). Moreover, the GI50 in test [7] is 33.1 µM (inactive); in [8], > 100 µM (inactive); in test [9], > 100 µM (inactive); in [10], 91.2 µM (inactive); in [11] it was > 100 µM (inactive); in test [12], > 100 µM (inactive). The GI50 was > 100 µM (inactive) in test [13], > 100 µM (inactive) in test [14], 48 µM (inactive) in test [15] and 60.1 µM (inactive) in test [16].
Consider `CC(C)CC(NC(=O)C(COc1ccc([N+](=O)[O-])cc1)Cc1ccccc1)C(=O)Nc1ccccc1` (centres undefined), for which the GI50 in test [1] is 5.85 µM (inactive); in [2], 23.6 µM (inactive); in test [3], 4.29 µM (inactive); in test [4], 7.26 µM (inactive); in [5], 40.3 µM (inactive); in test [6], 28.2 µM (inactive). Besides, the GI50 in test [17] was 25.8 µM (inactive); in test [7], 7 µM (inactive); in test [8], 16.1 µM (inactive); in test [9] it was 7.08 µM (inactive); in [10], 22.1 µM (inactive); in test [11] it was 13.1 µM (inactive). For the same compound, the GI50 was 16.8 µM (inactive) in test [12]; 13 µM (inactive) in [13]; 37.5 µM (inactive) in [14]; 40.5 µM (inactive) in test [15]; 10.3 µM (inactive) in [18]; 10.3 µM (inactive) in test [16].
Regarding `O=C(O)CCC(NC(=O)c1ccc(CNc2nc3ccccc3nc2C(=O)O)cc1)C(=O)O` (centres undefined), the GI50 in test [1], in test [2], in [4], in [5], in test [17] and in test [7] was > 100 µM (inactive) each time. Also, the GI50 in [8], in [9], in test [10], in test [12], in [13] and in test [14] was > 100 µM (inactive) each time. The GI50 in test [15], in [19] and in test [18] was > 100 µM (inactive) throughout.
With `CCN(CC)CCn1c(C(C)(C)C)nc2ccccc21`, the GI50 in test [1], in test [2], in test [3], in [4], in test [5] and in [6] was > 100 µM (inactive) throughout. Also, the GI50 is > 100 µM (inactive) in [17]; > 100 µM (inactive) in test [7]; > 100 µM (inactive) in test [8]; 18.7 µM (inactive) in test [9]; > 100 µM (inactive) in [10]; > 100 µM (inactive) in [11]. For the same compound, the GI50 in test [12], in [13], in test [14], in test [15], in test [18] and in test [16] was > 100 µM (inactive) each time.
Turning to `CCOC(=O)c1c(-c2ccc(OC)c(O)c2)c(C#N)c(=S)n(C2OC(CO)C(O)C(O)C2O)c1-c1ccccc1` (centres undefined), the GI50 was > 100 µM (inactive) in [1]; 1.6 µM (inactive) in [2]; > 100 µM (inactive) in test [3]; > 100 µM (inactive) in [4]; > 100 µM (inactive) in [6]; > 100 µM (inactive) in test [7]. Further, the GI50 in test [8], in test [9], in test [10], in test [11], in test [12] and in test [13] was > 100 µM (inactive) in each case. Further, the GI50 in test [14], in [15], in test [19] and in test [18] was > 100 µM (inactive) throughout.
Take `CCOP(=O)(C/C(O)=C1\C(=O)C(CCCCNC(=O)OC(C)(C)C)N(Cc2ccccc2)C1=O)OCC` (centres undefined): the GI50 in [1], in [2], in [3], in test [4], in test [5] and in test [6] was > 100 µM (inactive) throughout. Also, the GI50 in test [7] is > 100 µM (inactive); in test [8] it was > 100 µM (inactive); in test [9], > 100 µM (inactive); in [10] it was 78.7 µM (inactive); in [11] it was > 100 µM (inactive); in test [12] it was > 100 µM (inactive). Besides, the GI50 was > 100 µM (inactive) in test [13], > 100 µM (inactive) in test [14], > 100 µM (inactive) in test [15] and 63.7 µM (inactive) in [16].
With `CC(C)c1cc(C(C)C)c(Cl)c(Cl)c1O.CC(C)c1cc(Cl)c(O)c(C(C)C)c1Cl`, the GI50 in test [1] was 24.4 µM (inactive); in test [2], 20.5 µM (inactive); in [3], 30 µM (inactive); in test [4], 37.1 µM (inactive); in test [5] it was 48.3 µM (inactive); in test [6], 20.5 µM (inactive). The GI50 in test [17] was 23.7 µM (inactive); in test [7] it was 23.2 µM (inactive); in [8], 40.2 µM (inactive); in [9], 34.5 µM (inactive); in [11] it was 28.8 µM (inactive); in [12], 23.4 µM (inactive). Besides, the GI50 in [13] is 39.2 µM (inactive); in test [14], 22.4 µM (inactive); in [15], 20.4 µM (inactive); in [19] it was 16.6 µM (inactive); in test [16], 18.3 µM (inactive).
Regarding `CCc1cccc(C)c1NC(=O)CCc1nnc(S)[nH]1`, the GI50 in test [1], in test [2], in test [3], in test [4], in test [5] and in test [6] was > 100 µM (inactive) each time. For the same compound, the GI50 in test [7], in test [8], in [9], in test [10], in test [11] and in test [12] was > 100 µM (inactive) in each case. The GI50 in [13], in test [14], in [15] and in [16] was > 100 µM (inactive) in each case.
As for `Cc1ccc(S(=O)(=O)NC(=O)Nc2ccc(C(=O)O)c(O)c2)cc1`, the GI50 in [1], in test [2], in test [3], in [4], in [5] and in test [6] was > 100 µM (inactive) throughout. Moreover, the GI50 in test [17], in test [7], in test [8], in test [9], in test [10] and in test [11] was > 100 µM (inactive) each time. The GI50 in test [12], in [13], in [15], in [19] and in test [16] was > 100 µM (inactive) in each case.
`COc1ccc2c(c1)C/C(=C\c1ccc(O)c(OC)c1)C2=O`: the GI50 in test [2], in [3], in test [5], in [6], in test [17] and in test [7] was > 100 µM (inactive) each time. In addition, the GI50 in test [8], in test [9], in [10], in [11], in test [12] and in test [13] was > 100 µM (inactive) throughout. The GI50 in test [14], in test [15], in test [19] and in test [16] was > 100 µM (inactive) in each case.
`CCN(CCCl)CCNc1c2ccccc2nc2ccc(OC)cc12`: the GI50 in test [1] was 0.603 µM (active); in test [2], 1.27 µM (inactive); in [3], 0.273 µM (active); in [4], 0.104 µM (active); in test [5] it was 1.36 µM (inactive); in test [6], 0.361 µM (active). The GI50 in test [17] is 0.378 µM (active); in test [7], 1.44 µM (inactive); in test [8] it was 0.557 µM (active); in test [9] it was 0.254 µM (active); in test [10] it was 0.0426 µM (active); in test [11], 0.847 µM (active). In addition, the GI50 in test [12] is 0.127 µM (active); in test [13], 0.514 µM (active); in test [14], 0.548 µM (active); in test [15], 0.0977 µM (active); in [16], 0.199 µM (active).
`CC(C)CC(NC(=O)C(N)CCC(=O)OCc1ccccc1)C(=O)NC(COCc1ccccc1)C(=O)NC(Cc1ccccc1)C(=O)ON1C(=O)CCC1=O` (centres undefined) (H-E(OBn)LS(Bn)F-OSu; configuration not given here): the GI50 in test [1] was 32.1 µM (inactive); in [2], 32.1 µM (inactive); in test [3] it was 32.7 µM (inactive); in test [4] it was 26.6 µM (inactive); in [5], 28.8 µM (inactive); in [6], 28.8 µM (inactive). The GI50 in test [17] was 27.4 µM (inactive); in test [7] it was 23.6 µM (inactive); in test [8] it was 33.6 µM (inactive); in [9], 39.1 µM (inactive); in test [10], 25.5 µM (inactive); in test [12], 31.6 µM (inactive). Moreover, the GI50 in [13] was 26.4 µM (inactive); in test [14], 29.8 µM (inactive); in test [15], 19.9 µM (inactive); in test [19], 26.4 µM (inactive); in [18], 21.4 µM (inactive).
